Measurements reported in ChEMBL document CHEMBL1132738, “Carbohydrate-modulated DNA photocleavage: design, synthesis, and evaluation of novel glycosyl anthraquinones” (Bioorg Med Chem Lett, 2000).

What was measured:
HeLa [1] = assay: The compound was evaluated for its inhibitory activity against HeLa S3 cells in the absence of photoirradiation.; format: functional, cell-based; conditions: Homo sapiens, light or radiation study
HeLa [2] = assay: The compound was evaluated for its inhibitory activity against HeLa S3 cells in the presence of photoirradiation.; format: functional, cell-based; conditions: Homo sapiens, light or radiation study

| IC50 (HeLa [1]) | IC50 (HeLa [2]) | SMILES |
| --- | --- | --- |
| 8.8 µM | 1.9 µM | C[C@@H]1O[C@@H](OCc2ccc3c(c2O)C(=O)c2ccccc2C3=O)C[C@@H](N(C)C)[C@@H]1O |
| 9 µM | 4.8 µM | CC1OC(c2ccc3c(c2O)C(=O)c2ccccc2C3=O)CC(N(C)C)C1O (stereo unspecified) |
| 13 µM | 4.3 µM | C[C@@H]1O[C@H](OCc2ccc3c(c2O)C(=O)c2ccccc2C3=O)C[C@@H](N(C)C)[C@@H]1O |
